Assay: Cyclic voltammetry of electrolyte solution
Format: physicochemical
Conditions: for Number of reaction electrons: reversibly usable electrons
Excerpt: For analysis of electrochemical properties of an electrolyte solution, cyclic voltammetry (CV) was used. The cyclic voltammetry is an electrochemical measurement method which is commonly used a lot, and is a method of obtaining a current-potential curve by scanning an electrode potential of a working electrode with a triangular wave at a constant speed. A method of recording a current flowing when potential is changed in proportion to time as a potential-current curve is called a potential sweep method, and when the potential is repeatedly applied, it is called cyclic voltammetry. The cyclic voltammetry allows qualitative understanding of a reaction occurring on an electrode surface such as potential at the reaction occurs, reaction speed, and reactivity of a reaction product, and is widely used in the electrochemical field.
During cyclic voltammetry measurement, a potential scanning speed was applied at 10 to 300 mV/s, and the measurement results are shown in FIGS. 1 to 3.

[1] = 0.01 M in 1 M Na2SO4, glassy carbon working electrode

C[n+]1ccc(-c2cc[n+](C)cc2)cc1.O.[Cl-].[Cl-] [Comparative Example 1, methyl viologen dichloride hydrate]
Negative electrode one-electron reaction potential [1]: −0.54 V vs. NHE
Reduction and oxidation currents, negative electrode area, first electron reaction (FIG. 1, text): around −0.54 V
Reduction and oxidation currents, negative electrode area, second electron reaction (FIG. 1, text): ~−0.75 V
Reversibility of second electron (two-electron) reaction in negative electrode area (cyclic voltammetry curves): irreversible

C[N+](C)(C)CCC[n+]1ccc(-c2cc[n+](-c3cc(O)ccc3O)cc2)cc1 [Example 1]
Negative electrode one-electron reaction potential [1]: −0.48 V vs. NHE
Negative electrode two-electron reaction potential [1]: −0.80 V vs. NHE
Positive electrode reaction potential [1]: 0.46 V vs. NHE
Reversibility of second electron (two-electron) reaction in negative electrode area (cyclic voltammetry curves): showed a reversible shape
Reversibility in positive electrode area (cyclic voltammetry curves, 100 mV s^−1, FIG. 3): reversible behavior was shown
Number of reaction electrons: 2

C[n+]1ccc(-c2cc[n+](-c3cc(O)ccc3O)cc2)cc1 [Comparative Example 2]
Negative electrode one-electron reaction potential [1]: −0.34 V vs. NHE
Positive electrode reaction potential [1]: 0.59 V vs. NHE
Reduction and oxidation currents, negative electrode area, first electron reaction (FIG. 1, text): around −0.34 V
Reduction and oxidation currents, negative electrode area, second electron reaction (FIG. 1, text): ~−0.65 V
Two-electron reduction and oxidation currents derived from hydroquinone, positive electrode area (FIG. 1, text): 0.59 V
Reversibility of second electron (two-electron) reaction in negative electrode area (cyclic voltammetry curves): did not reach a target level
Number of reaction electrons: 1
